In US9149476B2, “Thiochromene derivatives as HIF hydroxylase inhibitors” (FibroGen, Inc., priority 2008, dated 2015):

The compounds below were run against T1, HIF-PH2 (EGLN1) (Homo sapiens, UniProt Q9GZT9) (assay: HIF-PH assay (14CO2 capture, peptide-dependent turnover)). Conditions: compound concentration 7.4 μM.
T1 construct: made in house; host or cells: insect Hi5 cells
T1 sequence (Q9GZT9 whole entry): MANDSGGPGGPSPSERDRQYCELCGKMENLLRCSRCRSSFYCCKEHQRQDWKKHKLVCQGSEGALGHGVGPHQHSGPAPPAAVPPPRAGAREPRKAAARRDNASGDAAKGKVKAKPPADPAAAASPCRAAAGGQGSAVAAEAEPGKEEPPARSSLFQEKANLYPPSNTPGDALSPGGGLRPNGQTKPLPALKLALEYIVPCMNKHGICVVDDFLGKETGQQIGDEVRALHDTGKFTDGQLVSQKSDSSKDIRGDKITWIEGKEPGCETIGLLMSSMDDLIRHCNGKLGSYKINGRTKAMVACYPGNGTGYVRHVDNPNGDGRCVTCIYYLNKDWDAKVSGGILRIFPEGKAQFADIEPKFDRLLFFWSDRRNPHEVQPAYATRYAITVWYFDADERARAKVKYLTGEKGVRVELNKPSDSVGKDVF
Assay type: biochemical
Source text: Ketoglutaric acid α-[1-^14C]-sodium salt, alpha-ketoglutaric acid sodium salt, and HPLC purified peptide may be obtained from commercial sources, e.g., Perkin-Elmer (Wellesley Mass.), Sigma-Aldrich, and SynPep Corp. (Dublin Calif.), respectively. Peptides for use in the assay may be fragments of HIFα as described above or as disclosed in International Publication WO 2005/118836, incorporated by reference herein. For example, a HIF peptide for use in the HIF-PH assay is [methoxycoumarin]-DLDLEALAPYIPADDDFQL-amide (SEQ ID NO:2). HIF-PH, e.g., HIF-PH2 (EGLN1), can be expressed in, e.g., insect Hi5 cells, and partially purified, e.g., through a SP ion exchange chromatography column. Enzyme activity is determined by capturing ^14CO2 using an assay described by Kivirikko and Myllyla (1982, Methods Enzymol. 82:245-304). Assay reactions contain 50 mM HEPES (pH 7.4), 100 μM α-ketoglutaric acid sodium salt, 0.30 μCi/mL ketoglutaric acid α-[1-^14C]-sodium salt, 40 μM FeSO4, 1 mM ascorbate, 1541.8 units/mL Catalase, with or without 50 μM peptide substrate and various concentrations of compound of the invention. Reactions are initiated by addition of HIF-PH enzyme.
The peptide-dependent percent turnover is calculated by subtracting percent turnover in the absence of peptide from percent turnover in the presence of substrate peptide. Percent inhibition and IC50 are calculated using peptide-dependent percent turnover at given inhibitor concentrations. Calculation of IC50 values for each inhibitor is conducted using GraFit software (Erithacus Software Ltd., Surrey UK).
Representative compounds of the invention were analyzed using the HIF-PH assay described above. Table 1 presents enzyme inhibition data for exemplary compounds against HIF-PH2, a representative HIF prolyl hydroxylase. By inhibiting HIF prolyl hydroxylase, compounds of the invention stabilize HIFα, which then combines with HIFβ to form an active transcription factor that increases expression of various genes involved in numerous beneficial cellular processes.
For O=C(O)CNC(=O)c1c(O)c2cc(Cl)ccc2sc1=O [Example 58, [(6-Chloro-4-hydroxy-2-oxo-2H-thiochromene-3-carbonyl)-amino]-acetic acid], the inhibition at 7.4 µM was 96.8%. C[C@H](NC(=O)c1c(O)c2ccccc2sc1=O)C(=O)O [Example 57, 2-(S)-[(4-Hydroxy-2-oxo-2H-thiochromene-3-carbonyl)-amino]-propionic acid] was tested, and the inhibition at 7.4 µM was 98.4%.

Same assay, conditions: compound concentration 12.5 μM
Work on CCCCOc1ccc2c(O)c(C(=O)NCC(=O)O)c(=O)sc2c1 [Example 26, [(7-Butoxy-4-hydroxy-2-oxo-2H-thiochromene-3-carbonyl)-amino]-acetic acid] yielded an inhibition at 12.5 µM of 96.2%. Compound O=C(O)CNC(=O)c1c(O)c2ccc(Br)cc2sc1=O [Example 5, [(7-bromo-4-hydroxy-2-oxo-2H-thiochromene-3-carbonyl)-amino]-acetic acid] has an inhibition at 12.5 µM of 97.6%.

Same assay, conditions: compound concentration 50 μM
O=C(O)CNC(=O)c1c(O)c2ccc(-c3ccc(C(F)(F)F)cc3)cc2sc1=O [Example 11, {[4-Hydroxy-2-oxo-7-(4-trifluoromethyl-phenyl)-2H-thiochromene-3-carbonyl]-amino}-acetic acid] was tested, and the inhibition at 50 µM was 95.8%. O=C(O)CNC(=O)c1c(O)c2cccc(-c3ccccc3)c2sc1=O [Example 51, [(4-Hydroxy-2-oxo-8-phenyl-2H-thiochromene-3-carbonyl)-amino]-acetic acid] was tested, and the inhibition at 50 µM was 98.8%. O=C(O)CNC(=O)c1c(O)c2ccc(-c3ccc(F)c(Cl)c3)cc2sc1=O [Example 17, {[7-(3-Chloro-4-fluoro-phenyl)-4-hydroxy-2-oxo-2H-thiochromene-3-carbonyl]-amino}-acetic acid] showed an inhibition at 50 µM of 92.8%. In the case of COc1ccccc1-c1ccc2c(O)c(C(=O)NCC(=O)O)c(=O)sc2c1 [Example 9, {[4-Hydroxy-7-(2-methoxy-phenyl)-2-oxo-2H-thiochromene-3-carbonyl]-amino}-acetic acid], the inhibition at 50 µM is reported as 97.2%. C[C@H](NC(=O)c1c(O)c2ccc(Cl)cc2sc1=O)C(=O)O [Example 61, 2-(S)-[(7-Chloro-4-hydroxy-2-oxo-2H-thiochromene-3-carbonyl)-amino]-propionic acid] showed an inhibition at 50 µM of 100%. In the case of O=C(O)CNC(=O)c1c(O)c2cc(NC(=O)c3ccccc3)ccc2sc1=O [Example 41, [(6-Benzoylamino-4-hydroxy-2-oxo-2H-thiochromene-3-carbonyl)-amino]-acetic acid], the inhibition at 50 µM is reported as 100%. O=C(O)CNC(=O)c1c(O)c2cc(OCC3CCCCC3)ccc2sc1=O [Example 63, [(6-Cyclohexylmethoxy-4-hydroxy-2-oxo-2H-thiochromene-3-carbonyl)-amino]-acetic acid] gave an inhibition at 50 µM of 98.9%. O=C(O)CNC(=O)c1c(O)c2ccc(Cl)cc2sc1=O [Example 60, [(7-Chloro-4-hydroxy-2-oxo-2H-thiochromene-3-carbonyl)-amino]-acetic acid] was tested, and the inhibition at 50 µM was 96.5%. O=C(O)CNC(=O)c1c(O)c2cc(Cl)cc(-c3cc(C(F)(F)F)cc(C(F)(F)F)c3)c2sc1=O [Example 43, {[8-(3,5-Bis-trifluoromethyl-phenyl)-6-chloro-4-hydroxy-2-oxo-2H-thiochromene-3-carbonyl]-amino}-acetic acid] gave an inhibition at 50 µM of 100%. With O=C(O)CNC(=O)c1c(O)c2ccc(-c3cncnc3)cc2sc1=O [Example 14, [(4-Hydroxy-2-oxo-7-pyrimidin-5-yl-2H-thiochromene-3-carbonyl)-amino]-acetic acid] the inhibition at 50 µM was 99.5%. For O=C(O)CNC(=O)c1c(O)c2c(F)cccc2sc1=O [Example 52, [(5-Fluoro-4-hydroxy-2-oxo-2H-thiochromene-3-carbonyl)-amino]-acetic acid], the inhibition at 50 µM was 98.5%. O=C(O)CNC(=O)c1c(O)c2ccc(-c3ccc(F)cc3)cc2sc1=O [Example 13, {[7-(4-Fluoro-phenyl)-4-hydroxy-2-oxo-2H-thiochromene-3-carbonyl]-amino}-acetic acid] showed an inhibition at 50 µM of 99.7%. O=C(O)CNC(=O)c1c(O)c2ccc(-c3ccccc3)cc2sc1=O [Example 12, [(4-Hydroxy-2-oxo-7-phenyl-2H-thiochromene-3-carbonyl)-amino]-acetic acid] showed an inhibition at 50 µM of 96.8%. COc1cccc(-c2ccc3c(O)c(C(=O)NCC(=O)O)c(=O)sc3c2)c1 [Example 8, {[4-Hydroxy-7-(3-methoxy-phenyl)-2-oxo-2H-thiochromene-3-carbonyl]-amino}-acetic acid] was tested, and the inhibition at 50 µM was 97.5%.

Same assay, conditions: compound concentration 67 μM
For O=C(O)CNC(=O)c1c(O)c2ccc(-c3cc(C(F)(F)F)cc(C(F)(F)F)c3)cc2sc1=O [Example 29, {[7-(3,5-Bis-trifluoromethyl-phenyl)-4-hydroxy-2-oxo-2H-thiochromene-3-carbonyl]-amino}-acetic acid], the inhibition at 67 µM was 96.4%. With O=C(O)CNC(=O)c1c(O)c2cc(-c3ccccc3C(F)(F)F)ccc2sc1=O [Example 34, {[4-Hydroxy-2-oxo-6-(2-trifluoromethyl-phenyl)-2H-thiochromene-3-carbonyl]-amino}-acetic acid] the inhibition at 67 µM was 99.8%. C[C@H](NC(=O)c1c(O)c2cc(Br)ccc2sc1=O)C(=O)O [Example 28, 2-(S)-[(6-Bromo-4-hydroxy-2-oxo-2H-thiochromene-3-carbonyl)-amino]-propionic acid] showed an inhibition at 67 µM of 98%. O=C(O)CNC(=O)c1c(O)c2ccc(-c3ccccc3C(F)(F)F)cc2sc1=O [Example 32, {[4-Hydroxy-2-oxo-7-(2-trifluoromethyl-phenyl)-2H-thiochromene-3-carbonyl]-amino}-acetic acid] showed an inhibition at 67 µM of 93.2%. O=C(O)CNC(=O)c1c(O)c2cc(-c3ccccc3Cl)ccc2sc1=O [Example 36, {[6-(2-Chloro-phenyl)-4-hydroxy-2-oxo-2H-thiochromene-3-carbonyl]-amino}-acetic acid] was tested, and the inhibition at 67 µM was 99.7%. For COc1ccccc1-c1ccc2sc(=O)c(C(=O)NCC(=O)O)c(O)c2c1 [Example 39, {[4-Hydroxy-6-(2-methoxy-phenyl)-2-oxo-2H-thiochromene-3-carbonyl]-amino}-acetic acid], the inhibition at 67 µM was 94.7%. In the case of O=C(O)CNC(=O)c1c(O)c2cc(-c3ccc(F)cc3)ccc2sc1=O [Example 38, {[6-(4-Fluoro-phenyl)-4-hydroxy-2-oxo-2H-thiochromene-3-carbonyl]-amino}-acetic acid], the inhibition at 67 µM is reported as 96.6%.

Same assay, conditions: compound concentration 200 μM
Work on CCCCCCOc1ccc2sc(=O)c(C(=O)NCC(=O)O)c(O)c2c1 [Example 64, [(6-Hexyloxy-4-hydroxy-2-oxo-2H-thiochromene-3-carbonyl)-amino]-acetic acid] yielded an inhibition at 200 µM of 100%.
